# Experimental data from patent US9113629B2, “4-amino-6-(4-substituted-phenyl)-picolinates and 6-amino-2-(4-substituted-phenyl)-pyrimidine-4-carboxylates and their use as herbicides” (DOW AGROSCIENCES LLC, priority 2013, dated 2015).
# Where two headings read alike, the source gives them in different places.
# How the values were obtained:
# [1] = system: Key Broadleaf Weed and Crop Species; test: Post-emergent Test II herbicidal activity (Table 5); format: in vivo; conditions: post-emergence, 336 h, 14 days after application; for pest or weed control at 70 g/ha: application rate 70 g ai/ha; for pest or weed control at 140 g/ha: application rate 140 g ai/ha
# Summary of the method: (§1)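 Post-emergence foliar spray, 187 L/ha, track sprayer at 43 cm above canopy. Carrier: acetone/water/IPA/DMSO/Atplus 411F/Triton X-155. Plants at 1st–2nd true leaf; subirrigated afterwards; % injury scored visually at 14 d.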
# [2] = system: Key Grass and Sedge Weeds as well as Grass Crops; test: Post-emergent Test II herbicidal activity (Table 6); format: in vivo; conditions: post-emergence, 336 h; for pest or weed control at 70 g/ha: 70 g ai/ha; for pest or weed control at 140 g/ha: 140 g ai/ha
# Summary of the method: as §1
# [3] = ABUTH: velvetleaf (Abutilon theophrasti), read-out: Visual Growth Reduction (%) 14 Days After Application, ABUTH
# [4] = AMARE: redroot pigweed (Amaranthus retroflexus), read-out: Visual Growth Reduction (%) 14 Days After Application, AMARE
# [5] = BRSNN: oilseed-rape, canola (Brassica napus), read-out: Visual Growth Reduction (%) 14 Days After Application, BRSNN
# [6] = CHEAL: lambsquarters (Chenopodium album), read-out: Visual Growth Reduction (%) 14 Days After Application, CHEAL
# [7] = EPHHL: wild poinsettia (Euphorbia heterophylla), read-out: Visual Growth Reduction (%) 14 Days After Application, EPHHL
# [8] = HELAN: sunflower (Helianthus annuus), read-out: Visual Growth Reduction (%) 14 Days After Application, HELAN
# [9] = VIOTR: wild pansy (Viola tricolor), read-out: Visual Growth Reduction (%) 14 Days After Application, VIOTR
# [10] = CYPES: yellow nutsedge (Cyperus esculentus), read-out: Visual Growth Reduction (%) 14 Days After Application, CYPES
# [11] = DIGSA: crabgrass (Digitaria sanguinalis), read-out: Visual Growth Reduction (%) 14 Days After Application, DIGSA
# [12] = ECHCG: barnyardgrass (Echinochloa crus-galli), read-out: Visual Growth Reduction (%) 14 Days After Application, ECHCG
# [13] = ORYSA: rice (Oryza sativa), crop, read-out: Visual Growth Reduction (%) 14 Days After Application, ORYSA
# [14] = SETFA: giant foxtail (Setaria faberi), read-out: Visual Growth Reduction (%) 14 Days After Application, SETFA
# [15] = SORVU: grain sorghum (Sorghum vulgare), read-out: Visual Growth Reduction (%) 14 Days After Application, SORVU
# [16] = TRZSS (wheat, Triticum aestivum), crop, read-out: Visual Growth Reduction (%) 14 Days After Application, TRZSS
# [17] = ZEAMX: maize, corn (Zea mays), crop, read-out: Visual Growth Reduction (%) 14 Days After Application, ZEAMX
Compound,"pest or weed control at 70 g/ha [1, 3] [%]","pest or weed control at 140 g/ha [1, 3] [%]","pest or weed control at 70 g/ha [1, 4] [%]","pest or weed control at 140 g/ha [1, 4] [%]","pest or weed control at 70 g/ha [1, 5] [%]","pest or weed control at 140 g/ha [1, 5] [%]","pest or weed control at 70 g/ha [1, 6] [%]","pest or weed control at 140 g/ha [1, 6] [%]","pest or weed control at 70 g/ha [1, 7] [%]","pest or weed control at 140 g/ha [1, 7] [%]","pest or weed control at 70 g/ha [1, 8] [%]","pest or weed control at 140 g/ha [1, 8] [%]","pest or weed control at 70 g/ha [1, 9] [%]","pest or weed control at 140 g/ha [1, 9] [%]","pest or weed control at 70 g/ha [2, 10] [%]","pest or weed control at 140 g/ha [2, 10] [%]","pest or weed control at 70 g/ha [2, 11] [%]","pest or weed control at 140 g/ha [2, 11] [%]","pest or weed control at 70 g/ha [2, 12] [%]","pest or weed control at 140 g/ha [2, 12] [%]",other results
Nc1cc(-c2ccc(I)cc2)nc(C(=O)O)c1Cl [Compound 4],95 to 100,95 to 100,85 to 94,85 to 94,95 to 100,95 to 100,95 to 100,95 to 100,95 to 100,95 to 100,75 to 84,85 to 94,0 to 29,0 to 29,45 to 59,95 to 100,60 to 74,75 to 84,75 to 84,85 to 94,"pest or weed control at 70 g/ha [2, 13]: 0 to 29%; pest or weed control at 140 g/ha [2, 13]: 0 to 29%; pest or weed control at 70 g/ha [2, 14]: 60 to 74%; pest or weed control at 140 g/ha [2, 14]: 60 to 74%; pest or weed control at 70 g/ha [2, 15]: 75 to 84%; pest or weed control at 140 g/ha [2, 15]: 75 to 84%; pest or weed control at 70 g/ha [2, 16]: 75 to 84%; pest or weed control at 140 g/ha [2, 16]: 75 to 84%; pest or weed control at 70 g/ha [2, 17]: 0 to 29%; pest or weed control at 140 g/ha [2, 17]: 0 to 29%"
COC(=O)c1nc(-c2ccc(I)cc2)nc(N)c1OC [Compound 18],75 to 84,75 to 84,0 to 29,0 to 29,75 to 84,95 to 100,85 to 94,95 to 100,95 to 100,95 to 100,95 to 100,95 to 100,0 to 29,45 to 59,95 to 100,95 to 100,0 to 29,30 to 44,0 to 29,45 to 59,"pest or weed control at 70 g/ha [2, 13]: 0 to 29%; pest or weed control at 140 g/ha [2, 13]: 0 to 29%; pest or weed control at 70 g/ha [2, 14]: 0 to 29%; pest or weed control at 140 g/ha [2, 14]: 0 to 29%; pest or weed control at 70 g/ha [2, 15]: 30 to 44%; pest or weed control at 140 g/ha [2, 15]: 0 to 29%; pest or weed control at 70 g/ha [2, 16]: 30 to 44%; pest or weed control at 140 g/ha [2, 16]: 30 to 44%; pest or weed control at 70 g/ha [2, 17]: 95 to 100%; pest or weed control at 140 g/ha [2, 17]: 95 to 100%"
